Seven compounds from article PMC8938452 can be followed below.

The nature of the data set: three-component macrocyclisation: bis(chloroacetamide) (1 eq) + diamine (1.2 eq) + CS2 (8 eq); in situ dithiocarbamate formation then S-alkylation (C-S bond, Cl displacement) at both ends, metal-free, no added base, 15 min. The note with it: the molecule shown is the open-chain precursor, PEG-200, 400.0 mM, 25.0 °C, 0.25 h.

Take `CCCCN(CCN(CCCC)C(=S)SCC(=O)N(C)CCN(C)C(=O)CCl)C(=S)[S-]` [1]: the ring closure, isolated yield (16-membered ring) is 61.3%.
Regarding `O=C(CCl)NCCCNC(=O)CSC(=S)N(CCN(Cc1ccccc1)C(=S)[S-])Cc1ccccc1` [6], the ring closure, isolated yield (17-membered ring) is 69.4%.
With `O=C(CCl)NCCCNC(=O)CSC(=S)NCCCCCCNC(=S)[S-]` [5], the ring closure, isolated yield (21-membered ring) is 74.7%.
`CN(CCN(C)C(=O)CSC(=S)N(C)CCN(C)C(=S)[S-])C(=O)CCl` [2]: the ring closure, isolated yield (16-membered ring) is 24.1%.
Consider `CN(CCN(C)C(=O)CSC(=S)NCCCNC(=S)[S-])C(=O)CCl` [3], for which the ring closure, isolated yield (17-membered ring) is 78.5%.
As to `O=C(CCl)NCCCNC(=O)CSC(=S)NCCCNC(=S)[S-]` [4], the ring closure, isolated yield (18-membered ring) came to 85.3%.
Turning to `CN(CCN(C)C(=S)SCC(=O)NCCN(C(=O)CCl)c1cccc2ccccc12)C(=S)[S-]` [7], the ring closure, isolated yield (16-membered ring) came to 84.6%.
